In US20130143884A1, “4-[2-[ [5-METHYL-1-(2-NAPHTALENYL)-1H-PYRAZOL-3-YL]OXY]ETHYL] MORPHOLINE SALTS” (priority 2009, published 2013):
Several values for one entry are separate records, joined by “and”; a condition that tells them apart may be missing. Equal values may be shown once. Where a name gives a salt, the structure may show the parent alone. Read-outs that look alike come from different tables or passages of the source.

How the values were obtained:
[1] = Solubility of the salts in crystallization screening solvents; type: physicochemical; details: initial screening solvents; for the maleate except ethyl acetate
Procedure: The product obtained in the initial preparation was solved in the minimum amount of crystallization solvent at its boiling temperature or at a maximum of 75° C. […] The mother liquors were cooled to room temperature and kept for 24 hours.
Initially, a crystallization screening of compound 63 with the ten counterions depicted in table 2 was performed, at a 40 mg scale, in the following ten solvents: acetone, ethyl acetate, chloroform, N,N-dimethylformamide, methanol, ethanol, isopropanol, 2-butanol, acetonitrile and tetrahydrofuran. The procedure started with the preparation of equimolar mixtures, from known concentration methanol dissolutions, of compound 63 and the different acid counterions. The resulting crude, after the methanol evaporation, was crystallized from the hot solvents formerly mentioned. Different crystallization strategies were used depending on the solubility of each acid and compound 63 mixture, and therefore the solids were obtained using different procedures. For some acids, the mixture was not soluble in the hot crystallization solvent, obtaining a slurry solid. In other cases, the solid crystallized during room temperature cooling of the solution, or after several days at 4° C. or at −18° C. Finally, in some crystallization attempts, the solid was obtained after slow evaporation of the solvent at room temperature. […]

sigma 1 (σ-1) site = sigma 1 (σ-1) site (Homo sapiens, UniProt Q99720); details: cited from earlier work
sigma 2 (σ-2) site = sigma 2 (σ-2) site (Homo sapiens, UniProt Q5BJF2); details: cited from earlier work
[2] = Dissolution and absorption profile in vivo; details: compared with its related base
pKa = type: physicochemical
[3] = Pharmacokinetics in rats after single oral administration (plasma, HPLC with fluorescence detection); type: in vivo; details: Wistar Hannover; rat plasma, single oral 25 mg/kg (expressed as compound 63)
Procedure: The pharmacokinetics of Example 1 in Wistar Hannover rats following a single oral administration of 25 mg/kg (expressed as compound 63) was tested. For this purpose, plasma samples were collected at different time points and analyzed using HPLC (High pressure liquid chromatography) method with fluorescence detection.
Two groups were used in this test. Group 1 received vehicle and Group 2 received Example 1 at 25 mg/kg with an administration volume of 10 mL/kg.
Blood samples were extracted from the retro-orbital zone at the following time points: pre-dose, 15 min, 30 min, 1 h, 1.5 h, 2 h, 3 h, 4 h, 5 h, 6 h, 8 h and 24 h. Blood was then transferred into heparin-containing plastic tubes. Plasma was obtained by centrifugation at approximately 3000 rpm for 10 min at 4° C. These plasma samples were labeled and frozen at a temperature of approximately −65° C. until analysis.
Samples were analyzed by a previously validated analytical method. Briefly, rat plasma samples were thawed at room temperature and centrifuged at 3000 rpm for 10 min at approximately 4° C. 300 μl of plasma samples were placed into vials and spiked with 30 μl of internal standard working solution. The vials were capped and mixed thoroughly. […]
The peaks corresponding to Example 1 and its internal standard were quantified by fluorescence detection at an excitation wavelength of 260 nm and an emission wavelength of 360 nm. […]
The peak plasma concentration values (Cmax) and the time to reach such concentration (tmax) were obtained directly from the experimental data. The elimination constant (kel) was calculated by linear regression of the last phase of the curve (log concentration vs. time). The elimination half-life (t1/2) was determined with the expression t1/2=0.693/kel. The area under the curve of plasma levels vs. time from zero to the last time determined (AUC0-t) was calculated be means of the trapezoidal method. The area under the curve of plasma levels vs time from zero to infinity (AUC0-∞) was calculated with the expression: AUC0-∞=AUC0-t+Clast/kel, where Clast is the plasma concentration at the last time measured.

[4] = Descriptive solubility in water and solvents; type: physicochemical
[5] = Thermodynamic solubility at pH 7.4; type: physicochemical
Procedure: General protocol for thermodynamic solubility at pH 7.4 and pH 2 is described below.
A) Thermodynamic Solubility at pH 7.4
Buffer phosphates pH 7.4 was prepared as follows: • A solution 25 mM of Na2HPO4.12H2O (for 1 l of water, weight 8.96 g) was prepared • A solution 25 mM de KH2PO4 (for 1 l of water weight 3.4 g) was prepared. • 812 ml of disodium phosphate solution+182 ml of potassium phosphate solution were mixed and pH checked according was 7.4.
Samples were equilibrated using: • Stirrer Thermomixer Control of Eppendorf a 25° C. y 1250 rpm • pHmeter with combined electrode of pH semimicro
2 mg in an HPLC vial (by duplicate) was weight and 1 ml of buffer was added. The vial was maintained at 25° C., in the stirrer Thermomixer Comfort., during 24 hours. Centrifugation at 4000 rpm followed during 15 min.
The resulting upper layer was collected with a glass pipette and transferred to the HPLC vials. Again centrifuged and the injector programmed at 2.7 mm high.
Sol.A: 2 mg in 5 ml methanol (400 ug/ml)
Sol.B: 1 ml Sol.A to 10 ml with methanol (40 ug/ml)
Sol.C: 5 ml Sol.B to 50 ml with methanol (4 ug/ml)
Sol.D: 4 ml Sol.C to 10 ml with methanol (1.6 ug/ml)
Sol.E: 5 ml Sol.D to 25 ml with methanol (0.32 ug/ml)
10 μl of all prepared solutions were injected, beginning with the more diluted standard. Blanks were also injected, for checking the absence of contamination.
The standard calibration curve was done (see FIG. 29). Consider Y=area y X=μg injected standard
10 μl of problem compound solution were injected, by duplicate and the average peak area (if quantifiable) interpolated in the standard curve (see Tables 9, 10 and 11 and example below).
Chromatographic Conditions • Column: XBridge C18 (or similar) 2.5 μm 4.6×50 mm • Temperature: 35° C. • Mobile phase: ACN/ammonium bicarbonate 10 mM. • Gradient: 0-3.5 min: from 15% ACN to 95% ACN • 3.5-5 min: 95% ACN • 5-6 min: 95 a 15% ACN • 6-8 min: 15% ACN • Flow: 1.5 ml/min • Detection: around the UV absorption maximum

[6] = treatment and prevention of chronic and acute pain, particularly neuropathic pain; reported in WO 2006/021462; cited from earlier work

sigma 1 (σ-1) site, sequence (Q99720 whole entry): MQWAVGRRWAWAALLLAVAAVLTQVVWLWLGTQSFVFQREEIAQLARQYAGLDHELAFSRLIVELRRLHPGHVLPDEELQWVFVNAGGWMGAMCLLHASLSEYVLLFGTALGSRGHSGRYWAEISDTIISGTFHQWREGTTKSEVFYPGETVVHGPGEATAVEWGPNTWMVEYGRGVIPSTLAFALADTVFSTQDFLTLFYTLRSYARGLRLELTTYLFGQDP
sigma 2 (σ-2) site, sequence (Q5BJF2 whole entry): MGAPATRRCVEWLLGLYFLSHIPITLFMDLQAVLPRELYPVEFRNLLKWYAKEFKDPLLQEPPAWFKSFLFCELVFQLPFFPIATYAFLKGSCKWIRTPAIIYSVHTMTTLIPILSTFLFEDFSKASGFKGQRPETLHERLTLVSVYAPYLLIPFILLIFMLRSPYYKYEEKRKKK

CCS(=O)(=O)O.Cc1cc(OCCN2CCOCC2)nn1-c1ccc2ccccc2c1 [ethanesulfonate salt]
Solubility in all the solvents assayed (first set of ten solvents) [1]: > 200000 µg/mL

SKF 10047 [reference compound]
Affinity for the sigma 1 (σ-1) site (sigma 1 (σ-1) site): nanomolar | Affinity for the sigma 2 (σ-2) site (sigma 2 (σ-2) site): micromolar

Cc1cc(OCCN2CCOCC2)nn1-c1ccc2ccccc2c1 [Example 1, 4-[2-[[5-methyl-1-(2-naphthalenyl)-1H-pyrazol-3-yl]oxy]ethyl]morpholine hydrochloride]
Dissolution and absorption profile in vivo [2]: better dissolution and absorption profile in vivo than its related base | pKa (pKa; read-out: pKa): 6.73 | AUC(0-inf) [3]: 1250 ng·h/mL | AUC(0-t) [3]: 1220 ng·h/mL | Cmax [3]: 1.15 µg/mL | Solubility in 1N hydrochloric acid ([4]; 1N hydrochloric acid): freely soluble | Solubility in 1N sodium hydroxide ([4]; 1N sodium hydroxide): practically insoluble | Solubility in acetone ([4]; acetone): slightly soluble | Solubility in dimethyl sulphoxide ([4]; dimethyl sulphoxide): freely soluble | Solubility in ethanol ([4]; ethanol): sparingly soluble | Solubility in ethyl acetate ([4]; ethyl acetate): practically insoluble | Solubility in methanol ([4]; methanol): freely soluble | Solubility in water ([4]; water): very soluble | solubility thermodynamic at 24 h ([5]; aqueous buffer, thermodynamic from solid, pH=7.4, phosphate buffer 50 mM, 25° C., 24 hours): 227 µg/mL | Conc. (single injections) ([5]; pH 7.4, duplicate samples, duplicate injections, hydrochloride): 225.5 µg/mL and 229.0 µg/mL and 229.3 µg/mL and 225.3 µg/mL | Conc. Mean ([5]; pH 7.4, mean of 4 injections): 227.262 µg/mL

Cc1cc(OCCN2CCOCC2)nn1-c1ccc2ccccc2c1 [compound 63, 4-[2-[[5-methyl-1-(2-naphthalenyl)-1H-pyrazol-3-yl]oxy]ethyl]morpholine]
Analgesic activity [6]: strong analgesic activity | pKa (pKa): 6.7 | Sigma-1 receptor activity (sigma 1 (σ-1) site; reported in WO 2006/021462): highly selective sigma-1 (σ-1) receptor antagonist
